Laboratory results published in article PMC10671360, “In Silico and In Vitro Study towards the Rational Design of 4,4′-Disarylbisthiazoles as a Selective α-Synucleinopathy Biomarker” (International Journal of Molecular Sciences, 2023).

Columns and labels:
[1] = target: T1, tau fibrils (Homo sapiens, UniProt P10636); test: Competition binding assay against [^3H]DCVJ, tau fibrils; settings: [^3H]DCVJ was used (20 nM); tau aggregates 125 nM
Procedure: (§1) Recombinant tau monomer (R&D systems, Minneapolis, MN, USA) was dissolved in 20 mM of Tris HCl, pH 8.0, 100 mM of NaCl, 25 μM of low-MW heparin, and 0.5 mM of dithiothreitol to a final concentration of 300 µg/mL. The mixture was incubated with shaking at 900 rpm at 37 °C for 48 h. To separate the non-aggregated monomers from the formed fibrils, the reaction mixture was centrifuged at 12,000× g for 5 min, and the resulting pellet was washed three times with 500 μL of 20 mM Tris-HCl, pH 7.4. The supernatants from the three centrifugation steps were combined, and the concentration of the monomer in the resulting supernatant was determined in a BCA assay(Thermo Fisher Scientific, Waltham, MA, USA) (with a BSA standard curve). Determination of the concentration of fibrils formed was carried out by subtracting the amount of tau peptide monomer in the supernatant from the initial amount used for fibrillation. The pellets of the fibrils obtained above (Section 4.2.1) were resuspended in 20 mM of Tris-HCl, pH 7.4 and diluted as needed for the binding assays. A fixed concentration of [^3H]DCVJ (10 nM) and α-synuclein aggregates (125 nM), prepared as described above (Section 4.2.3), was used with different final concentrations of the DABTAs from 0.01 to 100 nM (see SI Figure S1). The experiment was carried out in quintuplicate for each concentration. The mixture was incubated for 2 h in a final volume of 200 μL per well after dilution with 20 mM of Tris-HCl, pH 7.4. The incubated mixtures were filtered through a Perkin Elmer GF/B glass filter via a TOMTEC cell harvester and immediately washed thrice with 1 mL of deionized water. The filters containing the bound ligands were dried and afterwards mixed with 3 mL of BetaPlate Scint solution (Perkin Elmer Life Sciences, Waltham, MA, USA) and left there for 2 h before counting in a Wallac 1450 MicroBeta TriLux Liquid Scintillation Counter (PerkinElmer Life Sciences, Waltham, MA, USA). For the determination of the inhibition constants, data were analyzed using GraphPad Prism software (version 7.0) to obtain IC50 values by fitting the data to the equation Y = bottom + (top − bottom)/(1 + 10(x − log IC50)). Ki values were calculated from IC50 values using the equation Ki = IC50/(1 + [radioligand]/Kd). […] Further protocol was carried out as for [^3H]DCVJ (see SI Figure S3). Fixed concentrations (125 nM) of Aβ1−42, tau aggregates, and [^3H]DCVJ (10 nM and 20 nM for the Aβ1−42 and tau competition experiments respectively) were used with different concentrations of cold versions of the tracers from 1 to 1000 nM (See SI Figure S2). The experiment was performed in quadruplicate for each concentration. Further procedures followed the same already described in Section 4.2.3.1.

[2] = target: T1, tau fibrils; test: Competition binding assay against [^3H]PiB, tau fibrils
Procedure: as §1, with “Fixed concentrations (125 nM) of Aβ1−42, tau aggregates, and [^3H]DCVJ (10 nM and 20 nM for the Aβ1−42 and tau competition experiments respectively) were used with different concentrations of cold versions of the tracers from 1 to 1000 nM (See SI Figure S2). The experiment was performed in quadruplicate for each concentration.” left out, “4.2.3.1 (See SI Figure S4).” for “4.2.3.1.”

[3] = target: T2, recombinant α-syn fibrils (Homo sapiens, UniProt P37840); test: Competition binding assay against [^3H]PiB, α-syn fibrils; settings: for Selectivity Aβ/α-syn / Selectivity tau/α-syn: ratio of Ki, [^3H]PiB was used
T2 construct: made in house

T1 sequence (P10636 2-758): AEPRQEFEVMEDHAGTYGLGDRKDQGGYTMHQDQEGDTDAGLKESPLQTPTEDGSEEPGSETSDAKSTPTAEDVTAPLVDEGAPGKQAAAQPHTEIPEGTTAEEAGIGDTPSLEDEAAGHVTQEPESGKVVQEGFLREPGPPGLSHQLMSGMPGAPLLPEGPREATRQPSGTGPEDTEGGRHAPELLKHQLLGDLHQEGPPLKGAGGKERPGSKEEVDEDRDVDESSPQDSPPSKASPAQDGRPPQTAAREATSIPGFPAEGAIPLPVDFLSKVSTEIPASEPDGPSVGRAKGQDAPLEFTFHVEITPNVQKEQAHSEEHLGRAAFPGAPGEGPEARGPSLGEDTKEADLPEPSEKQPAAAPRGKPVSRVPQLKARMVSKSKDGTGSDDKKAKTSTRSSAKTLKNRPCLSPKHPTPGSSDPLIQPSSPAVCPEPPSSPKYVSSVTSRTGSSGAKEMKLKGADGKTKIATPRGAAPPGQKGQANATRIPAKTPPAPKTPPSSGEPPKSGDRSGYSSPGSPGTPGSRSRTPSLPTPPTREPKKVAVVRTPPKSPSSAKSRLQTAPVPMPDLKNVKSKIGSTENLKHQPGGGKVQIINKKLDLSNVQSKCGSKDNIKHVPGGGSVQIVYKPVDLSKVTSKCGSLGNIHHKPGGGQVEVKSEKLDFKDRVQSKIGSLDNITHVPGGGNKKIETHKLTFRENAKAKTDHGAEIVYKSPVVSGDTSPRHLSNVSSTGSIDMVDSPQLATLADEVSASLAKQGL

Ki [1] | Ki [2] | Ki [3] | Selectivity Aβ/α-syn [3] | Selectivity tau/α-syn [3] | Compound
437 nM | 362 nM | 4.89 nM | 19.8 | 74.1 | FCCOCCOc1cnc(-c2csc(-c3nc(-c4ccc5c(c4)OCO5)cs3)n2)nc1 [f6, 4-(Benzo[d][1,3]dioxol-5-yl)-4′-(5-(2-(2-fluoroethoxy)ethoxy)pyrimidin-2-yl)-2,2′-bithiazole]
> 1000 nM | 434 nM | 4.75 nM | 45.1 | 91.5 | Fc1ncc(-c2csc(-c3nc(-c4cnc5c(c4)OCO5)cs3)n2)cn1 [d10]
465 nM | 766 nM | 1.51 nM | 122.6 | 507.5 | FCCOc1cnc(-c2csc(-c3nc(-c4cnc5c(c4)OCO5)cs3)n2)nc1 [f4, 6-(4′-(5-(2-Fluoroethoxy)pyrimidin-2-yl)-[2,2′-bithiazol]-4-yl)-[1,3]dioxolo[4,5-b]pyridine]
515 nM | 516 nM | 2.88 nM | 53.8 | 179.2 | FCCOc1cnc(-c2csc(-c3nc(-c4ccc5c(c4)OCO5)cs3)n2)nc1 [f5, 4-(Benzo[d][1,3]dioxol-5-yl)-4′-(5-(2-fluoroethoxy)pyrimidin-2-yl)-2,2′-bithiazole]
